Two molecules from ChEMBL document CHEMBL3739268, “Structure activity relationships of 4-hydroxy-2-pyridones: A novel class of antituberculosis agents” (Eur J Med Chem, 2015) can be followed below.

≈ marks a conversion by molar mass, not a printed value.

The subject of the assay is Mycobacterium tuberculosis. Put plainly: Antituberculosis activity against multi-drug resistant Mycobacterium tuberculosis. It is filed as functional.

For orientation: MIC means the smallest concentration in the dilution series that meets the test's criterion for growth inhibition. Molecule `CC(C)Cc1cc(O)c(-c2ccccc2)c(=O)[nH]1` had an MIC of 2.5 µM (≈ 0.608 µg/mL). With `CC1(C)CCC(Cc2cc(O)c(-c3ccccc3)c(=O)[nH]2)CC1`, the MIC amounted to 0.04 µM (≈ 0.0125 µg/mL).
